SMILES strings stand for the structures. Numbered stars: 1 amine (or outer) side, 2 acyl side, 3 side chain; on linkers, the order of the positions; unused ones are H or OH. Bridge positions count the residues as written; N and C are the ends. Square brackets hold non-standard residues; d marks the D form. Peptide text beside a SMILES is read from it. * marks the point of attachment. ξ: configuration not given here. Bip(4'-NHAc) = CC(=O)Nc1ccc(-c2ccc(C[C@H](N)C(=O)O)cc2)cc1; dPhe(3-NO2) = N[C@H](Cc1cccc([N+](=O)[O-])c1)C(=O)O; Ala(morpholin-4-yl) = N[C@@H](CN1CCOCC1)C(=O)O; Phe(4-CONH2) = NC(=O)c1ccc(C[C@H](N)C(=O)O)cc1; Phe(4-COOH) = N[C@@H](Cc1ccc(C(=O)O)cc1)C(=O)O; Bip = N[C@@H](Cc1ccc(-c2ccccc2)cc1)C(=O)O; X37 = O=C([C@H](Cc1cn[nH]c1)N[*:1])[*:2]; Phe(3-Me) = Cc1cccc(C[C@H](N)C(=O)O)c1; hArg = N=C(N)NCCCC[C@H](N)C(=O)O; 4Pal = N[C@@H](Cc1ccncc1)C(=O)O; Cha = N[C@@H](CC1CCCCC1)C(=O)O; Thr(3ξ) = CC(O)[C@H](N)C(=O)O; NMeNle = CCCC[C@H](NC)C(=O)O; Carboxymethyl = O=C(O)C*; NMeA = CN[C@@H](C)C(=O)O; Nle = CCCC[C@H](N)C(=O)O; Orn = NCCC[C@H](N)C(=O)O; Dab = NCC[C@H](N)C(=O)O; Dap = NC[C@H](N)C(=O)O; ξDab = NCCC(N)C(=O)O

T1 sequence (Q15116 25-288): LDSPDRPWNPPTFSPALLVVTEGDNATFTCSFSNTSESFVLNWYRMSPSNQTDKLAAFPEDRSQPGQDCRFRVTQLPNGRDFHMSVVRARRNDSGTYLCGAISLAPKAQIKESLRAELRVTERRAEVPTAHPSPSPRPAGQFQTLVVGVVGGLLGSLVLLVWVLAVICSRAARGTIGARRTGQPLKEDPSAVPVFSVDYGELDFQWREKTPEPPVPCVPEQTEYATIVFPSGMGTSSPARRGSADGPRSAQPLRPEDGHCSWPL

The assay concerns the target T1, PE-labeled human PD-L1-Ig binding to Jurkat cell line over-expressing human PD-1 (Jurkat-PD-1) (Homo sapiens, UniProt Q15116).
T1 construct: expressed in transfected cells; host or cells: Jurkat
Description: Jurkat-PD-1 Cell Binding High-Content Screening Assay (CBA): Method 1. As to conditions: Jurkat-hPD-1 cells, PE-labeled PD-L1-Ig 20 nM final; read-out: Jurkat HPDL1 PD1 IC50 (uM) (Method 1).
For orientation: IC50 means the midpoint of a concentration-inhibition curve. On to `Cc1cccc(C[C@@H]2NC(=O)[C@H](CC(=O)O)NC(=O)[C@H](Cc3ccc(C(=O)O)cc3)NC(=O)[C@H](Cc3ccc(OCC(=O)O)cc3)NC(=O)CSC[C@@H](C(=O)N[C@@H](C)C(N)=O)NC(=O)[C@H](CO)NC(=O)[C@H](C(C)C)NC(=O)[C@H](CC(C)C)NC(=O)[C@H](CC(N)=O)NC(=O)[C@@H](C)NC(=O)[C@H](C)N(C)C(=O)[C@H](C(C)C)NC(=O)[C@H](Cc3ccc(-c4ccccc4)cc3)NC(=O)[C@H](CC(C)C)NC2=O)c1` [Compound 1579] ({CH2CO}-Y(Carboxymethyl)[Phe(4-COOH)]D[Phe(3-Me)]L[Bip]V[NMeA][dA]NLVSCA-NH2; thioether N-14), for which the IC50 is 0.02 µM.
Consider `CC(C)C[C@H]1NC(=O)[C@H](C)N(C)C(=O)[C@H](CCC(=O)O)NC(=O)[C@H](Cc2ccc(-c3ccccc3)cc2)NC(=O)[C@H](C(C)C)NC(=O)[C@H](Cc2c[nH]c3ccccc23)NC(=O)[C@H](CC(N)=O)NC(=O)[C@H](Cc2ccc(O)cc2)NC(=O)[C@H](Cc2ccncc2)NC(=O)CSC[C@@H](C(=O)N[C@@H](C)C(N)=O)NC(=O)[C@H](C(C)O)NC(=O)[C@H](C(C)C)NC(=O)[C@H](CC2CCCCC2)NC(=O)[C@H](CCN)NC1=O` (stereo partly drawn) [Compound 2088] ({CH2CO}-[4Pal]YNWV[Bip]E[NMeA][dL][Dab][Cha]V[Thr(3ξ)]CA-NH2; thioether N-14), for which the IC50 is 0.17 µM.
With `Cc1cccc(C[C@@H]2NC(=O)[C@H](CC(=O)O)NC(=O)[C@H](Cc3ccc(OCC(=O)O)cc3)NC(=O)[C@H](CN3CCOCC3)NC(=O)CSC[C@@H](C(=O)NC(CCN)C(N)=O)NC(=O)[C@H](CCCN)NC(=O)[C@H](C(C)C)NC(=O)[C@H](Cc3cccc(C)c3)NC(=O)[C@H](CCN)NC(=O)[C@@H](CC(C)C)NC(=O)[C@H](C)N(C)C(=O)[C@H](CCC(N)=O)NC(=O)[C@H](Cc3ccc(-c4ccccc4)cc3)NC(=O)[C@H](Cc3ccc(C(=O)O)cc3)NC2=O)c1` (stereo partly drawn) [Example 2298] ({CH2CO}-[Ala(morpholin-4-yl)]Y(Carboxymethyl)D[Phe(3-Me)][Phe(4-COOH)][Bip]Q[NMeA][dL][Dab][Phe(3-Me)]V[Orn]C[ξDab]-NH2; thioether N-14) the figure was 0.01 µM; with `CC(C)C[C@@H]1NC(=O)[C@H](CCN)NC(=O)[C@@H](CC(C)C)NC(=O)[C@H](C)N(C)C(=O)[C@H](CCCNC(=N)N)NC(=O)[C@H](Cc2ccc(-c3ccccc3)cc2)NC(=O)[C@H](C(C)C)NC(=O)[C@H](Cc2c[nH]c3ccccc23)NC(=O)[C@H](CC(=O)O)NC(=O)[C@H](Cc2ccc(O)cc2)NC(=O)[C@H](Cc2cn[nH]c2)NC(=O)CSC[C@@H](C(=O)N[C@@H](C)C(N)=O)NC(=O)[C@H]([C@@H](C)O)NC(=O)[C@H](C(C)C)NC1=O` [Compound 1159] ({CH2CO}-[X37]YDWV[Bip]R[NMeA][dL][Dab]LVTCA-NH2; thioether N-14), 0.07 µM; with `CCCC[C@@H]1NC(=O)[C@H](CCCNC(=N)N)NC(=O)[C@@H](CC(C)C)NC(=O)[C@H](C)N(C)C(=O)[C@H](CCCN)NC(=O)[C@H](Cc2ccc(-c3ccccc3)cc2)NC(=O)[C@H](C(C)C)NC(=O)[C@H](Cc2c[nH]c3ccccc23)NC(=O)[C@H](CC(=O)O)NC(=O)[C@H](Cc2ccc(O)cc2)NC(=O)[C@H](CC(N)=O)NC(=O)CSC[C@@H](C(=O)N[C@@H](C)C(N)=O)NC(=O)[C@H]([C@@H](C)O)NC(=O)[C@H](C(C)C)NC1=O` [Compound 1289] ({CH2CO}-NYDWV[Bip][Orn][NMeA][dL]R[Nle]VTCA-NH2; thioether N-14), 0.09 µM.
The same measure for `CC(C)C[C@H]1NC(=O)[C@H](C)N(C)C(=O)[C@H](CCCNC(=N)N)NC(=O)[C@H](Cc2ccc(-c3ccccc3)cc2)NC(=O)[C@H](C(C)C)NC(=O)[C@H](Cc2c[nH]c3ccccc23)NC(=O)[C@H](CC(=O)O)NC(=O)[C@H](Cc2ccc(O)cc2)NC(=O)[C@H](CC(N)=O)NC(=O)CSC[C@@H](C(=O)N[C@@H](C)C(N)=O)NC(=O)[C@H]([C@@H](C)O)NC(=O)[C@H](C(C)C)NC(=O)[C@H](CC2CCCCC2)NC(=O)[C@H](CCN)NC1=O` [Compound 1284] ({CH2CO}-NYDWV[Bip]R[NMeA][dL][Dab][Cha]VTCA-NH2; thioether N-14): 0.01 µM; for `CC[C@H](C)[C@@H]1NC(=O)[C@H](Cc2ccc(-c3ccccc3)cc2)NC(=O)[C@H](C(C)C)NC(=O)[C@H](Cc2c[nH]c3ccccc23)NC(=O)[C@H](CC(=O)O)NC(=O)[C@H](Cc2ccc(O)cc2)NC(=O)[C@H](CN)NC(=O)CSC[C@@H](C(=O)N[C@@H](C)C(N)=O)NC(=O)[C@H]([C@@H](C)O)NC(=O)[C@H](C(C)C)NC(=O)[C@H](CC(C)C)NC(=O)[C@H](CCCNC(=N)N)NC(=O)[C@@H](CC(C)C)NC(=O)[C@H](C)N(C)C1=O` [Compound 1488] ({CH2CO}-[Dap]YDWV[Bip]I[NMeA][dL]RLVTCA-NH2; thioether N-14): 0.04 µM.
Turning to `CC(C)C[C@@H]1NC(=O)[C@H](CCCNC(=N)N)NC(=O)[C@@H](Cc2cccc([N+](=O)[O-])c2)NC(=O)[C@H](C)N(C)C(=O)[C@H](CCCNC(=N)N)NC(=O)[C@H](Cc2ccc(-c3ccccc3)cc2)NC(=O)[C@H](C(C)C)NC(=O)[C@H](Cc2c[nH]c3ccccc23)NC(=O)[C@H](CC(=O)O)NC(=O)[C@H](Cc2ccc(O)cc2)NC(=O)[C@H](Cc2ccccc2)NC(=O)CSC[C@@H](C(=O)N[C@@H](C)C(N)=O)NC(=O)[C@H]([C@@H](C)O)NC(=O)[C@H](C(C)C)NC1=O` [Compound 1074] ({CH2CO}-FYDWV[Bip]R[NMeA][dPhe(3-NO2)]RLVTCA-NH2; thioether N-14), the 50% inhibitory concentration (IC50) turned out to be 0.11 µM.
With `CCCC[C@H]1C(=O)N[C@H](C)C(=O)N[C@@H](CCN)C(=O)N[C@@H](CC2CCCCC2)C(=O)N[C@@H](C(C)C)C(=O)N[C@@H](CO)C(=O)N[C@H](C(=O)N[C@@H](CC(N)=O)C(N)=O)CSCC(=O)N[C@@H](Cc2ccncc2)C(=O)N[C@@H](Cc2ccc(C(=O)O)cc2)C(=O)N[C@@H](CC(=O)O)C(=O)N[C@@H](Cc2c[nH]c3ccccc23)C(=O)N[C@@H](C(C)C)C(=O)N[C@@H](Cc2ccc(-c3ccccc3)cc2)C(=O)N[C@@H](CCCN)C(=O)N1C` [Compound 2090] ({CH2CO}-[4Pal][Phe(4-COOH)]DWV[Bip][Orn][NMeNle][dA][Dab][Cha]VSCN-NH2; thioether N-14), the IC50 came out at 0.14 µM.
For the molecule `CC(C)C[C@@H]1NC(=O)[C@H](CC(N)=O)NC(=O)[C@@H](CC(C)C)NC(=O)[C@H](C)N(C)C(=O)[C@H](CCCNC(=N)N)NC(=O)[C@H](Cc2ccc(-c3ccccc3)cc2)NC(=O)[C@H](C(C)C)NC(=O)[C@H](Cc2c[nH]c3ccccc23)NC(=O)[C@H](CC(=O)O)NC(=O)[C@H](Cc2ccc(O)cc2)NC(=O)[C@H](Cc2ccccc2)NC(=O)CSC[C@@H](C(=O)N[C@@H](C)C(N)=O)NC(=O)[C@H](CO)NC(=O)[C@H](C(C)C)NC1=O` [Compound 1742] ({CH2CO}-FYDWV[Bip]R[NMeA][dL]NLVSCA-NH2; thioether N-14), the IC50 was 0.02 µM.
The same measure for `CC(C)C[C@@H]1NC(=O)[C@H](CCN)NC(=O)[C@@H](CC(C)C)NC(=O)[C@H](C)N(C)C(=O)[C@H](CCC(=O)O)NC(=O)[C@H](Cc2ccc(-c3ccccc3)cc2)NC(=O)[C@H](C(C)C)NC(=O)[C@H](Cc2c[nH]c3ccccc23)NC(=O)[C@H](CC(=O)O)NC(=O)[C@H](Cc2ccc(O)cc2)NC(=O)[C@H](Cc2ccccc2)NC(=O)CSC[C@@H](C(=O)N[C@@H](CCC(=O)O)C(N)=O)NC(=O)[C@H]([C@@H](C)O)NC(=O)[C@H](C(C)C)NC1=O` [Compound 1164] ({CH2CO}-FYDWV[Bip]E[NMeA][dL][Dab]LVTCE-NH2; thioether N-14): 0.07 µM.
With `CC(C)C[C@@H]1NC(=O)[C@H](CCN)NC(=O)[C@@H](CC(C)C)NC(=O)[C@H](C)N(C)C(=O)[C@H](CCCNC(=N)N)NC(=O)[C@H](Cc2ccc(-c3ccccc3)cc2)NC(=O)[C@H](C(C)C)NC(=O)[C@H](Cc2c[nH]c3ccccc23)NC(=O)[C@H](CC(=O)O)NC(=O)[C@H](Cc2ccc(O)cc2)NC(=O)[C@H](CCCCNC(=N)N)NC(=O)CSC[C@@H](C(=O)N[C@@H](C)C(N)=O)NC(=O)[C@H]([C@@H](C)O)NC(=O)[C@H](C(C)C)NC1=O` [Compound 1344] ({CH2CO}-[hArg]YDWV[Bip]R[NMeA][dL][Dab]LVTCA-NH2; thioether N-14) the figure was 0.07 µM; with `CCNC(=O)[C@H](CCN)NC(=O)[C@@H]1CSCC(=O)N[C@@H](Cc2ccc(C(N)=O)cc2)C(=O)N[C@@H](Cc2ccc(OCC(=O)O)cc2)C(=O)N[C@@H](CC(=O)O)C(=O)N[C@@H](Cc2cccc(C)c2)C(=O)N[C@@H](Cc2ccc(OCC(=O)O)cc2)C(=O)N[C@@H](Cc2ccc(-c3ccccc3)cc2)C(=O)N[C@@H](Cc2ccc(OCC(=O)O)cc2)C(=O)N(C)[C@@H](C)C(=O)N[C@H](CC(C)C)C(=O)N[C@@H](CCN)C(=O)N[C@@H](CC2CCCCC2)C(=O)N[C@@H](C(C)C)C(=O)N[C@@H]([C@@H](C)O)C(=O)N1` [Compound 1857] ({CH2CO}-[Phe(4-CONH2)]Y(Carboxymethyl)D[Phe(3-Me)]Y(Carboxymethyl)[Bip]Y(Carboxymethyl)[NMeA][dL][Dab][Cha]VTC[Dab]-NHEt; thioether N-14), 0.01 µM.
Regarding `CC(=O)Nc1ccc(-c2ccc(C[C@@H]3NC(=O)[C@H](C(C)C)NC(=O)[C@H](Cc4c[nH]c5ccccc45)NC(=O)[C@H](CC(=O)O)NC(=O)[C@H](Cc4ccc(O)cc4)NC(=O)[C@H](Cc4ccccc4)NC(=O)CSC[C@@H](C(=O)N[C@@H](C)C(N)=O)NC(=O)[C@H]([C@@H](C)O)NC(=O)[C@H](C(C)C)NC(=O)[C@H](CC(C)C)NC(=O)[C@H](CCCNC(=N)N)NC(=O)[C@@H](CC(C)C)NC(=O)[C@H](C)N(C)C(=O)[C@H](CCCNC(=N)N)NC3=O)cc2)cc1` [Compound 1067] ({CH2CO}-FYDWV[Bip(4'-NHAc)]R[NMeA][dL]RLVTCA-NH2; thioether N-14), the IC50 was 0.12 µM.

The values are drawn from patent US20240409585A1, “MACROCYCLIC IMMUNOMODULATORS” (priority 2021, published 2024).
